In patent publication US20060167046A1, “Histamine h3 receptor antagonists, preparation and therapeutic uses” (Eli Lilly and Company Patent Division, priority 2002, published 2006) one finds Ki data, which are given here for 2 molecules.

The target in the test is T1, H3R membranes (H3R8-expressing HEK293 cell line) (Homo sapiens, UniProt Q9Y5N1).
T1 construct: expressed in transfected cells
Kind of test: [35S]GTPγS binding assay, H3R membranes in the presence of agonist. The class given is biochemical. Conditions: inhibition of [35S]GTPγS binding to H3R membranes in presence of agonist R(-)alpha methylhistamine; room temperature, pH 7.4. How it is done:
Membranes isolated as described in (Preparation of Histamine Receptor Subtype Membranes) were used in a [^35S]GTPχS functional assay. Binding of [^35S]GTPχS to membranes indicates agonist activity. Compounds of the invention of Formula I were tested for their ability to inhibit binding in the presence of agonists. Alternately, the same transfected cell lines were used for a cAMP assay wherein H3R agonists inhibited forskolin-activated synthesis of cAMP. Compounds of Formula I were tested for their ability to permit forskolin-stimulated cAMP synthesis in the presence of agonist. cDNA for the human histamine 3 receptor was cloned and expressed as described in (A. Preparation H1R membranes), above. Transfected cells were selected using G418 ([…]), grown, and tested for histamine binding by the SPA described above. For total binding, cells were assayed in a SPA reaction described above containing 50 mM Tris-HCL (assay buffer), pH 7.6, 1 mg wheat germ agglutinin SPA beads (Amersham Pharmacia Biotech, #RPNQ0001), and 1 nM (^3H)-n-alpha-methylhistamine (NEN, NET1027) (total volume per well=200 μl). Thioperimide was added to determine non-specific binding. Several clones were selected as positive for binding, and a single clone (H3R8) was used to prepare membranes for binding studies described above. […] Plates were counted in Wallac Trilux 1450 Microbeta scintillation counter for 1 minute. […]
A general note: GTPγS is a poorly hydrolysed GTP analogue; its binding reports G protein activation.

T1 sequence (Q9Y5N1 whole entry): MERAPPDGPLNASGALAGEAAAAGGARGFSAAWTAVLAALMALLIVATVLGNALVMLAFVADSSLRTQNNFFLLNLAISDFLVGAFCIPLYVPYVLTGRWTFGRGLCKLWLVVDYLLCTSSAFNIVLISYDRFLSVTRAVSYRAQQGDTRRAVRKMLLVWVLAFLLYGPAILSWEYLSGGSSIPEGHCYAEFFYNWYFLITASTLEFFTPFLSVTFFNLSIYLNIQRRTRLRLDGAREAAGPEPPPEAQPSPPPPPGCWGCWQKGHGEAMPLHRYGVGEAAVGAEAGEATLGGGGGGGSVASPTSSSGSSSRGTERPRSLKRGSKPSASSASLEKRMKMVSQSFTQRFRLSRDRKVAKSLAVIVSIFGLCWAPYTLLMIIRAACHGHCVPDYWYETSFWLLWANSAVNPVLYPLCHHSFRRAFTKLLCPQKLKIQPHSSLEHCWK

For the molecule `O=C(c1cccs1)N1CCCc2ccc(OCCCN3CCCCC3)cc21` [Example 6, [7-(3-Piperidin-1-yl-propoxy)-3,4-dihydro-2H-quinolin-1-yl]-thiophen-2-yl-methanone], the inhibition constant Ki turned out to be 12.6 nM.
Turning to `CN1CCC[C@H]1CN1CCc2cc(OCCCN3CCCCC3)ccc21` [Example 60, (S)-1-(1-Methyl-pyrrolidin-2-ylmethyl)-5-(3-piperidin-1-yl-propoxy)-2,3-dihydro-1H-indole], the Ki was found to be 0.5 nM.

What is called Ki is a dissociation constant, usually derived from enzyme kinetics or from competition with a known ligand.
